Test system: TAA-induced hepatic fibrosis rats
Assay: Assessment of liver function (plasma ALT and AST) in TAA-induced hepatic fibrosis rats
Assay type: in vivo, rat
Conditions: mean ± SEM, n=8
Procedure: The protocol for this study was approved by the King Abdulaziz University Research Ethics Committee and adhered to the international guidelines for the Care and Use of Laboratory Animals. Adult Sprague-Dawley male rats weighing 200-250 g were obtained from King Fahd Research Center and housed in cages at 20-22° C. room temperature in a 12 h light-dark cycle. After one week of acclimatization, rats were used in the experiment. Food and water were available ad libitum. Rats were given freshly prepared TAA (0.9% w/v in saline solution, 200 mg/kg, ip) twice weekly for eight weeks. A normal control (NC) group of rats (n=8) received injections of the vehicle twice weekly for eight weeks. The TAA-treated rats were randomly assigned to groups (n=8), including a test group for each dosage of a free drug (not encapsulated in ZMS), each dosage of zeinmersomes encapsulating the drug, and a positive control group (PC) having hepatic fibrosis but receiving a vehicle-only treatment instead of a drug treatment. Five groups of rats (n=8) were given freshly prepared TAA (0.9% w/v in saline solution, 200 mg/kg, ip) twice weekly for eight weeks and a normal control (NC) group received vehicle injections, as described in Example 4. The five TAA groups included a positive control group (PC, untreated) and four groups treated with low and high doses (2 and 4 mg/kg/day) of OM as raw drug (OL & OH, respectively) and the same low and high doses (2 and 4 mg/kg/day) of OM formulated as zeinmersomes (OLZMS & OHZMS, respectively). The OM standard drug was suspended in distilled water containing 0.25% w/v carboxymethyl cellulose. The doses were given by oral gavage once daily for two months. […] At the end of treatment duration, blood samples were withdrawn from the retro-orbital plexus of the rats under light ether anesthesia. Plasma was separated and kept at −80° C. until analysis. Then, the rats were sacrificed by cervical dislocation under ether anesthesia. Liver and duodenum were isolated and parts of each were kept in 10% formalin-saline for histopathological examination. Other portions of liver tissue were homogenized. The plasma levels of ALT and AST and the homogenate levels of IL-6, reduced glutathione (GSH), TNF-α, malondialdehyde (MDA), and protein content were measured using ELISA kits (MyBioSource, Inc. CA, USA). In addition, the concentrations of olmesartan in plasma and liver homogenate were measured by HPLC/MS. Data are expressed as mean±SEM Comparisons between different groups were carried out using one-way analysis of variance (ANOVA) followed by Bonferroni test for multiple comparisons. […] The levels of ALT and AST were measured by using ELISA commercially available kits according to the manufacturer's protocol.

[1] = high dose 4 mg/kg/day oral gavage once daily for two months
[2] = low dose 2 mg/kg/day oral gavage once daily for two months

CCCc1nc(C(C)(C)O)c(C(=O)OCc2oc(=O)oc2C)n1Cc1ccc(-c2ccccc2-c2nnn[nH]2)cc1 [OM, (5-methyl-2-oxo-1,3-dioxol-4-yl)methyl 5-(2-hydroxypropan-2-yl)-2-propyl-3-[[4-[2-(2H-tetrazol-5-yl)phenyl]phenyl]methyl]imidazole-4-carboxylate]
plasma ALT [1]: 81.41 U/L
plasma AST [1]: 169.00 U/L
plasma ALT [2]: 114.88 U/L
plasma AST [2]: 198.32 U/L
